Test results as given in paper PMC3410622 (2012).

Target: glutamate carboxypeptidase II (GCPII) (Homo sapiens, UniProt Q04609)
Type: biochemical

Sequence of glutamate carboxypeptidase II (GCPII) (Q04609 whole entry): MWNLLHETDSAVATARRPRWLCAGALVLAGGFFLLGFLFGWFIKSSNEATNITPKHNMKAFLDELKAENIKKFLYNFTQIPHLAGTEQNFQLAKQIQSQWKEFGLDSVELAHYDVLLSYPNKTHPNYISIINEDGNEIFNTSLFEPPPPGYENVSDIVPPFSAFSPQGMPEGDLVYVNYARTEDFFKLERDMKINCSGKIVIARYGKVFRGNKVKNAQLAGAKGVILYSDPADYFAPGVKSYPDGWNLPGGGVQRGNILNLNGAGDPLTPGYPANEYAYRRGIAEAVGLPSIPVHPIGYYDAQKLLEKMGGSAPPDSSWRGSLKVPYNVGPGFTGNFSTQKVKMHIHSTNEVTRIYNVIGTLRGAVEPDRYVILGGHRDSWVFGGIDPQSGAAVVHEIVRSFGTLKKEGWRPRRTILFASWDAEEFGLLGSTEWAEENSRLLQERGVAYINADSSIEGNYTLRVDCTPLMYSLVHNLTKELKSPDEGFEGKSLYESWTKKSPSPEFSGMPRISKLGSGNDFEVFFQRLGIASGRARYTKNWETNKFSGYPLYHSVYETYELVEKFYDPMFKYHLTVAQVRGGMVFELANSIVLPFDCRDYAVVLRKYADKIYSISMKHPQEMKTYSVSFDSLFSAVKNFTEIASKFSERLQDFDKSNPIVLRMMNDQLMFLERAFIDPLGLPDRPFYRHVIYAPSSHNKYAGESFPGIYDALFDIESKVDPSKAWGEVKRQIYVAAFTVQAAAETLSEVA

With `CCC[C@H](NC(=O)N[C@@H](CCC(=O)O)C(=O)O)C(=O)O` [ZJ44, N-[[[(1S)-1-Carboxy-3-methylpropyl]amino]carbonyl]-L-glutamic acid] the Ki was 39.4 ± 2.9 nM.
